Laboratory results as given in patent publication US12612410B2 (CHILDREN'S HOSPITAL MEDICAL CENTER, priority 2020, dated 2026).

The molecules below were run against T1, FLT3 ITD (Homo sapiens, UniProt P36888) (assay: DiscoverX KINOMEscan competition binding, FLT3 ITD).
T1 construct: fused on or other part: DNA tag for qPCR detection (T7 phage fusion or DNA-tagged protein from HEK-293 cells)
T1 sequence (P36888 1-993): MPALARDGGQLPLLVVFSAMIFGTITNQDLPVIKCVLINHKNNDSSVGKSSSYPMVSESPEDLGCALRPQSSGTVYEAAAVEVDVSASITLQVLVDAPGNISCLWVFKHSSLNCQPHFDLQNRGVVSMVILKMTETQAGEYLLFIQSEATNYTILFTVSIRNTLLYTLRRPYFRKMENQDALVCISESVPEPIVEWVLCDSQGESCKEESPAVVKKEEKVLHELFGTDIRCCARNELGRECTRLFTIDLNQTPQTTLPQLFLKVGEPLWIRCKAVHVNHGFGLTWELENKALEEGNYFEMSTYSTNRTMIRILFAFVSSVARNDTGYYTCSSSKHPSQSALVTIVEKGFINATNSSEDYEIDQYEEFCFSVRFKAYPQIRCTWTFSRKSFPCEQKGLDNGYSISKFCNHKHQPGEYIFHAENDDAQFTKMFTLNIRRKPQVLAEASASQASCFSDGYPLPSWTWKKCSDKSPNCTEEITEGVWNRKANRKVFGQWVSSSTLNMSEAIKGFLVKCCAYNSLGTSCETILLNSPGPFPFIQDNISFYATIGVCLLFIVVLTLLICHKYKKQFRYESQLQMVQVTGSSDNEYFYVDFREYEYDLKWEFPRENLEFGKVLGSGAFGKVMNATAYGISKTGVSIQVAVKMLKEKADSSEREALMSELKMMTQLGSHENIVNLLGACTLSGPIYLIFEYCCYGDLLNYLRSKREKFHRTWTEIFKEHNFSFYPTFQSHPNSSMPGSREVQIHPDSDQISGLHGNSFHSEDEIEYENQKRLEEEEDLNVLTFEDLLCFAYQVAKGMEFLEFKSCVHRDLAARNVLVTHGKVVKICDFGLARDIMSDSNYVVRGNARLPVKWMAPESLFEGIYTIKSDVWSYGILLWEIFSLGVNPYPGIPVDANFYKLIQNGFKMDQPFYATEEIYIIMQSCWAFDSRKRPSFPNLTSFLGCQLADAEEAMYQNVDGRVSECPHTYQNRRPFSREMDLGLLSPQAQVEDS
Source text: Kinase binding data were obtained for various exemplary compounds prepared according to Examples 1-24 using the DiscoverX KINOMVIEscan® active site-directed competition binding site-directed assay protocol described below. […] As a result, the data report thermodynamic interaction affinities (Kd values), rather than IC50 values that are dependent on ATP concentrations. The assay uses a DNA-tagged version of the protein kinase, and an immobilized ligand bound to a solid support. Compounds that directly or indirectly prevent kinase binding to the immobilized ligand reduce the amount of kinase captured on the solid support, which is detected using an ultra-sensitive qPCR method. Affinity constants reported from the assay have been reported to be independent of the immobilized ligand used that is coupled to the solid support (See supplemental information in Fabian, M. A. et. al., (2005) Nat. Biotechnol. 23, 329-336; Wodicka, L. M. et. al., (2010) Chem. Biol. 17, 1241-1249.)
Kinase-tagged T7 phage strains were prepared in an E. coli host derived from the BL21 strain. E. coli were grown to log-phase and infected with T7 phage and incubated with shaking at 32° C. until lysis. The lysates were centrifuged and filtered to remove cell debris. The remaining kinases were produced in HEK-293 cells and subsequently tagged with DNA for qPCR detection. Streptavidin-coated magnetic beads were treated with biotinylated small molecule ligands for 30 minutes at room temperature to generate affinity resins for kinase assays. The liganded beads were blocked with excess biotin and washed with blocking buffer (SeaBlock (Pierce), 1% BSA, 0.05% Tween 20, 1 mM DTT) to remove unbound ligand and to reduce non-specific binding. Binding reactions were assembled by combining kinases, liganded affinity beads, and test compounds in 1× binding buffer (20% SeaBlock, 0.17×PBS, 0.05% Tween 20, 6 mM DTT). Test compounds were prepared as 111× stocks in 100% DMSO. Kds were determined using an 11-point 3-fold compound dilution series with three DMSO control points. All compounds for Kd measurements are distributed by acoustic transfer (non-contact dispensing) in 100% DMSO. The compounds were then diluted directly into the assays such that the final concentration of DMSO was 0.9%. All reactions were performed in polypropylene 384-well plates. Each was a final volume of 0.02 mL. The assay plates were incubated at room temperature with shaking for 1 hour and the affinity beads were washed with wash buffer (1×PBS, 0.05% Tween 20). The beads were then re-suspended in elution buffer (1×PBS, 0.05% Tween 20, 0.5 μM nonbiotinylated affinity ligand) and incubated at room temperature with shaking for 30 minutes. The kinase concentration in the eluates was measured by qPCR.
Binding constants (Kds) were calculated with a standard dose-response curve using the Hill equation. The Hill Slope was set to −1. Curves were fitted using a non-linear least square fit with the Levenberg-Marquardt algorithm.

| Structure (SMILES) | Kd [nM] |
| --- | --- |
| CC1(c2cn3c(-c4cccc(N[C@H]5CNC[C@@H]5F)n4)cnc3cn2)CC1 [Compound 1, N-((3S,4S)-4-fluoropyrrolidin-3-yl)-6-(6-(1-methylcyclopropyl)imidazo[1,2-a]pyrazin-3-yl)pyridin-2-amine] | 0.087 |
| FC(F)(F)C1(c2cn3c(-c4cccc(N[C@@H]5CCNC5)n4)cnc3cn2)CC1 [Compound 10, (R)-N-(pyrrolidin-3-yl)-6-(6-(1-(trifluoromethyl)cyclopropyl)imidazo[1,2-a]pyrazin-3-yl)pyridin-2-amine] | 1.4 |
| CC(C)(O)c1cn2c(-c3cccc(N[C@@H]4CCCNC4)n3)cnc2cn1 [Compound 30, (R)-2-(3-(6-(piperidin-3-ylamino)pyridin-2-yl)imidazo[1,2-a]pyrazin-6-yl)propan-2-ol] | 2.9 |
| F[C@H]1CNC[C@@H]1Nc1cccc(-c2cnc3cnc(C4CC4)cn23)n1 [Compound 50, 6-(6-cyclopropylimidazo[1,2-a]pyrazin-3-yl)-N-((3S,4S)-4-fluoropyrrolidin-3-yl)pyridin-2-amine] | 0.091 |
| Cn1cc(-c2cn3c(-c4cccc(N[C@H]5CNC[C@@H]5F)n4)cnc3cn2)cn1 [Compound 52, N-((3S,4S)-4-fluoropyrrolidin-3-yl)-6-(6-(1-methyl-1H-pyrazol-4-yl)imidazo[1,2-a]pyrazin-3-yl)pyridin-2-amine] | 0.13 |

Continued by falling Kd, values first:

| Kd [nM] | Structure (SMILES) |
| --- | --- |
| 2.3 | FC(F)(F)COc1cn2c(-c3cccc(N[C@@H]4CCNC4)n3)cnc2cn1 [Compound 38, (R)-N-(pyrrolidin-3-yl)-6-(6-(2,2,2-trifluoroethoxy)imidazo[1,2-a]pyrazin-3-yl)pyridin-2-amine] |
| 1.5 | CC(C)(O)c1cn2c(-c3cccc(N[C@H]4CNCC[C@@H]4F)n3)cnc2cn1 [Compound 31, 2-(3-(6-(((3S,4S)-4-fluoropiperidin-3-yl)amino)pyridin-2-yl)imidazo[1,2-a]pyrazin-6-yl)propan-2-ol] |
| 0.34 | FC(F)c1cn2c(-c3cccc(N[C@H]4CNCC[C@@H]4F)n3)cnc2cn1 [Compound 25, 6-(6-(difluoromethyl)imidazo[1,2-a]pyrazin-3-yl)-N-((3S,4S)-4-fluoropiperidin-3-yl)pyridin-2-amine] |
| 0.14 | CC1(c2cn3c(-c4cccc(N[C@@H]5CCNC5)n4)cnc3cn2)CC1 [Compound 3, (R)-6-(6-(1-methylcyclopropyl)imidazo[1,2-a]pyrazin-3-yl)-N-(pyrrolidin-3-yl)pyridin-2-amine] |
| 0.14 | FC(F)c1cn2c(-c3cccc(N[C@H]4CNC[C@@H]4F)n3)cnc2cn1 [Compound 16, 6-(6-(difluoromethyl)imidazo[1,2-a]pyrazin-3-yl)-N-((3S,4S)-4-fluoropyrrolidin-3-yl)pyridin-2-amine] |
| 0.11 | CC1(c2cn3c(-c4cccc(N[C@H]5CNCC56CC6)n4)cnc3cn2)CC1 [Compound 5, (R)-N-(6-(6-(1-methylcyclopropyl)imidazo[1,2-a]pyrazin-3-yl)pyridin-2-yl)-5-azaspiro[2.4]heptan-7-amine] |
